The subject of assay [1] is washed platelets. The assay is described as follows: Effect of Mg2+ on washed platelet aggregation induced by thrombin receptor activating peptide (SFLLRN). Type of assay: cell-based, human. Particulars: compound at 100 μM; SFLLRN 10 μM. As for the experimental part: Washed platelets are resuspended in buffer containing fibrinogen (200 μg/ml) and 1 mM […] in combination with either 1 mM or 20 mM Mg^2+. Aggregation is induced by adding a thrombin receptor activating peptide (SFLLRN) at 10 μM.

The target in the next assay is T1, αIIbβ3 (Homo sapiens, UniProt P05106+P08514).
T1 construct: Washed platelets are prepared in HBMT containing 2 mM CaCl2/1 mM MgCl2; endogenous in cells; host or cells: washed platelets
T1 sequence (P08514 32-887 limits assumed): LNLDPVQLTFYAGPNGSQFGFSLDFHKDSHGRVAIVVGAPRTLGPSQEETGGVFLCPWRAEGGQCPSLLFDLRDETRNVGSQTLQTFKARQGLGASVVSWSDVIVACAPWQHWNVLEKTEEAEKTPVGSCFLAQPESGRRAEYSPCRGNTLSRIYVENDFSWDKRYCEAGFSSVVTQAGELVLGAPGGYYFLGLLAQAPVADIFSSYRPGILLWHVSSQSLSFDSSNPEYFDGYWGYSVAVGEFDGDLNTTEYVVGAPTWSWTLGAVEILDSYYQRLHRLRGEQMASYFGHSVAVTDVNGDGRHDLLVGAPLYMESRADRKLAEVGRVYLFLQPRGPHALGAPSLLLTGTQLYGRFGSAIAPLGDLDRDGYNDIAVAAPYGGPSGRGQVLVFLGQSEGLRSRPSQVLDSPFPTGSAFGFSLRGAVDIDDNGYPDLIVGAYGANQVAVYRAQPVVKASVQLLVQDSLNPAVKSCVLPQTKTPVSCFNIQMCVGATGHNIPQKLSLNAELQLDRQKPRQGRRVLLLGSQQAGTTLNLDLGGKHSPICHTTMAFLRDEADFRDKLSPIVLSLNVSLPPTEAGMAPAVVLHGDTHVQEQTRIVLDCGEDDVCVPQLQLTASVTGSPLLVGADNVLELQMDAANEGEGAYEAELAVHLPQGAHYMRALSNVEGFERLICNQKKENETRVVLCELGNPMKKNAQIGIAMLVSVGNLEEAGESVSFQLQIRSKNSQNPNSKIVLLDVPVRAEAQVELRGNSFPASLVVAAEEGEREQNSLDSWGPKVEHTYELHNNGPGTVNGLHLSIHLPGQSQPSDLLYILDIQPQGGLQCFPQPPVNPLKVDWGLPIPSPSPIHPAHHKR
T1 sequence (P08514 891-1039 partner limits assumed): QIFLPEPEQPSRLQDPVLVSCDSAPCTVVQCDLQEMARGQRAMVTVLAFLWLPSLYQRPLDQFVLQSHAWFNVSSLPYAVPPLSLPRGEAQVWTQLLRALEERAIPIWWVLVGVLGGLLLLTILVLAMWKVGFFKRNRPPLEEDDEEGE
T1 sequence (P05106 27-788): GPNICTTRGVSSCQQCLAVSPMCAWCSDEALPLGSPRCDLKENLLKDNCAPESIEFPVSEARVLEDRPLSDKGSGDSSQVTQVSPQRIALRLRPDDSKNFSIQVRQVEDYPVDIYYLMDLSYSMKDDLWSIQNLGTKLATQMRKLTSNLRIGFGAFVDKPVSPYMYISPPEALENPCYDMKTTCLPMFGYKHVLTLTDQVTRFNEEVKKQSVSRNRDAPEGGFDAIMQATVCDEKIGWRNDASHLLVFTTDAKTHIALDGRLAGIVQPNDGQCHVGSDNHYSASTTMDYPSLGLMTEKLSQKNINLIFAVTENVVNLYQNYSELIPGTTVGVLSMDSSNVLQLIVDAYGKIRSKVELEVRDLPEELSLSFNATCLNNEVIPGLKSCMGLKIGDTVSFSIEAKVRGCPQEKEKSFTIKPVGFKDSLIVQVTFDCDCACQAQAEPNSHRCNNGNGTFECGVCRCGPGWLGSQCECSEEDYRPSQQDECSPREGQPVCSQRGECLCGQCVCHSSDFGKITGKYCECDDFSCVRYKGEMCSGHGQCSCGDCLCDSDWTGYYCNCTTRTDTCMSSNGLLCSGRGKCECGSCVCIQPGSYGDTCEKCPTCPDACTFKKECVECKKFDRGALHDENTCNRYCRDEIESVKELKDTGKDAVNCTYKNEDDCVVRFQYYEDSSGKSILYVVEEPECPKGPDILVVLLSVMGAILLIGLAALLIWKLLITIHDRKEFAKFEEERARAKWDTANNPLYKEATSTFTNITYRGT
The assay is described as follows: Induction of ligand-induced binding site (LIBS) epitopes, flow cytometry of washed platelets. It is filed as cell-based. Particulars: eptifibatide 10 μM = 100%, Example 27 at 100 μM. How it is done: Washed platelets are prepared in HBMT containing 2 mM CaCl2/1 mM MgCl2. […] Fluorescently labeled monoclonal antibodies (PMI-1, LIBS-1, AP5, or 10E5; Alexa-488 conjugated; Invitrogen) are then added (20 μL, final concentration: 5 μg/mL) and incubated for 30 minutes at 22° C. in the dark, after which samples are diluted 1:10 in HBMT with CaCl2/MgCl2 for analysis by flow cytometry (FACSCalibur; Becton Dickinson, Franklin Lakes, N.J.). Antibody binding is reported as the geometric mean fluorescence intensity; nonspecific binding is determined by adding a 50-fold excess of unlabeled antibody before adding the labeled antibody. The net normalized fluorescence intensity in the presence of eptifibatide (10 μM, 30 min incubation at 22° C.) is assigned the value of 100%
A general note: Flow cytometry measures light scatter and fluorescence of single cells or particles in a stream.

The target in assay [2] is T2, HEK293 cells stably expressing normal human αVβ3 (Homo sapiens, UniProt P05106+P06756).
T2 construct: expressed in transfected cells; host or cells: HEK293
T2 sequence (P06756 31-889 limits assumed): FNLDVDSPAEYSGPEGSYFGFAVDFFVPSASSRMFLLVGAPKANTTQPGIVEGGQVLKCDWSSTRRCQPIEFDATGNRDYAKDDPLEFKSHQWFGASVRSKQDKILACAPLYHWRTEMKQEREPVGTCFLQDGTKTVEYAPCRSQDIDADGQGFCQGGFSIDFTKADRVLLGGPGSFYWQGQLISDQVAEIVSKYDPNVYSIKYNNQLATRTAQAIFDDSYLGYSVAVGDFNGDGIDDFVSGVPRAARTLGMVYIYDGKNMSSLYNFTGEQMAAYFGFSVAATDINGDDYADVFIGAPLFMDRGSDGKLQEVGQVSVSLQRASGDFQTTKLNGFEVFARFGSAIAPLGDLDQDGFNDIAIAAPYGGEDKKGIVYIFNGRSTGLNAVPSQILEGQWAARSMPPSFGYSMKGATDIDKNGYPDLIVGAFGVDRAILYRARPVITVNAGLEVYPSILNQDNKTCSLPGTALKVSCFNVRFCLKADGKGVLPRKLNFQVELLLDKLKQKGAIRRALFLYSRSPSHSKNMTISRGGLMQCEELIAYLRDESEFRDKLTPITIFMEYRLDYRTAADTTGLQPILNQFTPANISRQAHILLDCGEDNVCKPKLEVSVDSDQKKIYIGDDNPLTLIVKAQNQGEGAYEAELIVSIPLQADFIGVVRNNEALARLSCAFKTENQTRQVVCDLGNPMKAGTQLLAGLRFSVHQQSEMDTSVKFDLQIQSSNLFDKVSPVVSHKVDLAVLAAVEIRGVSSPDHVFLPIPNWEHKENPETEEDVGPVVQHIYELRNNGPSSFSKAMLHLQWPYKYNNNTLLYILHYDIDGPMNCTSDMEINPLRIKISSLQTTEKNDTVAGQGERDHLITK
T2 sequence (P06756 891-1048 partner limits assumed): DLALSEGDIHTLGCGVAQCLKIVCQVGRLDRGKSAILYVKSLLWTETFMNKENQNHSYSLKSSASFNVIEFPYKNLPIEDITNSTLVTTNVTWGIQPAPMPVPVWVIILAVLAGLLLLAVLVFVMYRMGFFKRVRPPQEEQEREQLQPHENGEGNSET
T2 sequence (P05106 27-788): as the sequence (P05106 27-788) above
The assay is described as follows: αVβ3-mediated cell adhesion to vitronectin. Type of assay: cell-based. Particulars: HEK293, n=4. How it is done: Washed platelets are prepared as per the primary screening assay, suspended in HBMT containing 1 mM MgCl2 (platelet adhesion to collagen) or 2 mM CaCl2/1 mM MgCl2 (platelet adhesion to fibrinogen) and adjusted to a count of 250×10^9/L. HEK293 cells stably expressing normal human αVβ3 or normal human αIIbβ3 are suspended in HBMT containing either 1 mM MgCl2 (HEK293 cells expressing αVβ3 for adhesion to vitronectin) or 2 mM CaCl2/1 mM MgCl2 (HEK293 cells expressing αIIbβ3 for adhesion to fibrinogen); the cell counts are adjusted to 10^6/mL. Polystyrene 96-well microtiter plates (Nunc) are coated with either fibrinogen (50 μg/mL), vitronectin (5 μg/mL), or collagen (33 μg/mL, rat tail type 1; Becton Dickinson) for 1 hour, and blocked with HBMT for at least 1 hour. Platelets and cells are treated with the compound of Example 27 of the current invention or 2-ethyl-7-(piperazin-1-yl)-5H-[1,3,4]thiadiazolo-[3,2-a]pyrimidin-5-one of U.S. Ser. No. 12/514,286 in the presence or absence of anti-α2β1 mAb 6F1, anti-αIIbβ3 mAb 10E5, anti-αIIbβ3 mAb 10E5+αVβ3 mAb 7E3, αVβ3-specific mAb LM609, or anti-αVβ3+αIIbβ3 mAb 7E3, for 15 minutes at 37° C. before being added to the microtiter wells. After adhering for 1 hour at either 22° C. (platelets) or 37° C. (cells), nonadherent platelets or cells are removed by washing 3 times with HBMT containing the same ion composition as the buffer used for adhesion. […] In other experiments, 8-chambered glass coverslips (Nunc) are coated with collagen (33 μg/mL) for 1 hour at 22° C. Washed platelets are allowed to adhere for 1 hour at 22° C. and the coverslips are stained with the Alexa-488-conjugated β3-specific mAb 7H2. Adherent platelets are imaged using a Zeiss LSM-510 confocal system with Axiovert 200 microscope (Carl Zeiss, Heidelberg, Germany) using a Plan-Apochromat 100/1.4 NA oil DIC objective.

Assay [3] has as its target T3, HEK293 cells stably expressing normal human αIIbβ3 (Homo sapiens, UniProt P05106+P08514).
T3 construct: expressed in transfected cells; host or cells: HEK293
The assay is described as follows: αIIbβ3-mediated cell adhesion to fibrinogen. It is filed as cell-based. The following applies: same concentration as αVβ3 experiments (100 μM), n=4. As for the experimental part:
Washed platelets are prepared as per the primary screening assay, suspended in HBMT containing 1 mM MgCl2 (platelet adhesion to collagen) or 2 mM CaCl2/1 mM MgCl2 (platelet adhesion to fibrinogen) and adjusted to a count of 250×10^9/L. HEK293 cells stably expressing normal human αVβ3 or normal human αIIbβ3 are suspended in HBMT containing either 1 mM MgCl2 (HEK293 cells expressing αVβ3 for adhesion to vitronectin) or 2 mM CaCl2/1 mM MgCl2 (HEK293 cells expressing αIIbβ3 for adhesion to fibrinogen); the cell counts are adjusted to 10^6/mL. Polystyrene 96-well microtiter plates (Nunc) are coated with either fibrinogen (50 μg/mL), vitronectin (5 μg/mL), or collagen (33 μg/mL, rat tail type 1; Becton Dickinson) for 1 hour, and blocked with HBMT for at least 1 hour. Platelets and cells are treated with the compound of Example 27 of the current invention or 2-ethyl-7-(piperazin-1-yl)-5H-[1,3,4]thiadiazolo-[3,2-a]pyrimidin-5-one of U.S. Ser. No. 12/514,286 in the presence or absence of anti-α2β1 mAb 6F1, anti-αIIbβ3 mAb 10E5, anti-αIIbβ3 mAb 10E5+αVβ3 mAb 7E3, αVβ3-specific mAb LM609, or anti-αVβ3+αIIbβ3 mAb 7E3, for 15 minutes at 37° C. before being added to the microtiter wells. After adhering for 1 hour at either 22° C. (platelets) or 37° C. […]

The test system of assay [4] is platelets. The assay is described as follows: Platelet aggregation assay: ADP-induced, platelet-rich plasma. Particulars: citrate anticoagulant, tested twice, read-out: IC50, ADP-induced platelet aggregation of citrated PRP. It is filed as cell-based, human. As for the experimental part: […] After 30 seconds in the aggregometer (Kowa AF-10E; Tokyo, Japan) at 37° C. with stirring, ADP (5-20 μM) is added to induce aggregation and the light transmittance is measured for 8 minutes. The initial slopes of aggregation in the presence of different concentrations of the Compound being tested are used to generate an IC50.

Assay [5] deals with platelets. The assay is described as follows: Platelet adhesion assay: calcein-labeled platelets on fibrinogen-coated wells. It is filed as cell-based. Particulars: Homo sapiens, mean±SD. As for the experimental part:
Thirty microliters of human fibrinogen (50 μg/mL) in Tris/saline (100 mM NaCl, 50 mM Tris/HCl, pH 7.4; American Diagnostica, Stamford, Conn.) are added to black, clear-bottom, untreated polystyrene, nonsterile 384-well microtiter plate wells (Corning no. 3711; Acton, Mass.). […] An additional wash is performed using HBMT with 1 mM MgCl2 and 2 mM CaCl2. Calcein-labeled platelets (final concentration 1×10^11/L) are treated with selected Compounds of the Invention (final concentration of 100 μM, 30 μM, 10 μM or 1 μM) at 22° C. for 20 minutes. Thirty microliters of platelets are then added to the wells. After 1 hour of adhesion, wells are washed 3 times with HBMT-1 mM MgCl2/2 mM CaCl2 and the plates are read by a fluorescent microtiter plate reader (Envision; Perkin Elmer) to detect calcein fluorescence (490 nm excitation and 515 nm emission). Negative controls consist of wells containing platelets without compounds of the invention.

A further assay has as its target T4, purified αIIbβ3 (Homo sapiens, UniProt P05106+P08514).
T4 construct: αIIbβ3 is purified from outdated single donor platelet concentrates obtained from the New York Blood Center; tissue New York Blood Center; host or cells: outdated single donor platelet concentrates
The assay is described as follows: Extension of purified αIIbβ3 in nanodiscs by negative staining electron microscopy. Particulars: for shift of nanodisc-integrin length (NIL) frequency distribution: 1 hour at room temperature, at highest doses majority of NIL values 18 to 23 nm. As for the experimental part: In brief, the His-tagged membrane scaffold protein is prepared as a recombinant protein in E. coli and purified by Nickel affinity chromatography and anion exchange chromatography. Final assembly consists of solubilizing an equimolar mixture of 1,2-dimyristoyl-sn-glycero-3-phosphocholine and 1,2-dimyristoyl-sn-glycero-3-phospho-(1′-rac-glycerol) in octylglucoside and cholate and then adding the purified αIIbβ3. The detergents are removed with macroporous polymeric beads (Bio-Bead SM-2) and then the αIIbβ3 nanodiscs are separated from the empty nanodiscs by gel filtration.
αIIbβ3 nanodiscs are treated with eptifibatide, tirofiban, 2-ethyl-7-(piperazin-1-yl)-5H-[1,3,4]thiadiazolo-[3,2-a]pyrimidin-5-one of U.S. Ser. No. 12/514,286, or the compound of Example 27 of the current invention for 1 hour at room temperature at concentrations up to 100 μM for 2-ethyl-7-(piperazin-1-yl)-5H-[1,3,4]thiadiazolo-[3,2-a]pyrimidin-5-one (a compound claimed in U.S. Ser. No. 12/514,286) and at concentrations up to 10 μM for 2-amino-N-(3-(5-oxo-7-(piperazin-1-yl)-5H-[1,3,4]thiadiazolo[3,2-a]pyrimidin-2-yl)phenyl)acetamide of Example 27. Samples are loaded onto carbon-coated copper grids that are glow-discharged by a carbon coating unit (Edwards; Crowley, UK), and then stained with 2% uranyl acetate, followed by drying. Imaging of αIIbβ3 nanodiscs is performed using a JOEL JEM 100CX transmission electron microscope (Jeol Ltd; Tokyo, Japan) at 80 kV and magnifications of 33,000× and 50,000×. Individual nanodiscs containing αIIbβ3 are manually selected for analysis using Image J (NIH, Bethesda, Md.). The distance from the bottom of the nanodisc to the height of the αIIbβ3 complex (nanodisc-integrin length; NIL) is measured as an indicator of integrin extension. The frequency distribution of NIL values is then analyzed for untreated αIIbβ3 nanodiscs and αIIbβ3 nanodiscs in the presence of different compounds.

The subject of assay [6] is washed platelets. The assay is described as follows: Effect of Mg2+ concentration on platelet adhesion to fibrinogen. Type of assay: cell-based, human. The following applies: 1, 20, 50 mM Mg2+. As for the experimental part: Washed platelets in buffers containing 1 mM Ca^2+ plus 1 mM, 20 mM, or 50 mM Mg^2+ are added to wells pre-coated with fibrinogen (50 μg/ml) for 60 min at 22° C. After washing, adherent platelets are detected by acid phosphatase activity. Results are expressed as mean±SD (n=3 for the compound of Example 27 of the current invention and 2-ethyl-7-(piperazin-1-yl)-5H-[1,3,4]thiadiazolo-[3,2-a]pyrimidin-5-one (a compound disclosed and claimed in U.S. Ser. No. 12/514,286); n=2 for tirofiban).

Values joined by “and” are separate entries in the source; they are usually repeats but may differ in a detail not shown here. Equal entries are not always repeated. Where two headings read alike, the source gives them in different places. Bridge positions count the residues as written; N and C are the ends. Square brackets hold non-standard residues; d marks the D form. Peptide text beside a SMILES is read from it. hArg = N=C(N)NCCCC[C@H](N)C(=O)O; Mpa = O=C(O)CCS

T4 sequence (P08514 32-887 limits assumed): as the sequence (P08514 32-887 limits assumed) above
T4 sequence (P08514 891-1039 partner limits assumed): as the sequence (P08514 891-1039 partner limits assumed) above
T4 sequence (P05106 27-788): as the sequence (P05106 27-788) above
T3 sequence (P08514 32-887 limits assumed): as the sequence (P08514 32-887 limits assumed) above
T3 sequence (P08514 891-1039 partner limits assumed): as the sequence (P08514 891-1039 partner limits assumed) above
T3 sequence (P05106 27-788): as the sequence (P05106 27-788) above

Turning to `CCc1nn2c(=O)cc(N3CCNCC3)nc2s1` [Example 1, 2-ethyl-7-(piperazin-1-yl)-5H-[1,3,4]thiadiazolo[3,2-a]pyrimidin-5-one], the “effect of Mg2+ on the inhibition of SFLLRN-induced platelet aggregation” value with washed platelets [1] was “much less evident”. Further, at αIIbβ3, the “AP5 binding, % of the amount in the presence of eptifibatide” value was 10±4% and 10%. Besides, the “LIBS1 binding after 30 min, % of the amount in the presence of eptifibatide” value on αIIbβ3 was 18±2%. Besides, on αIIbβ3, the “PMI-1 binding, % of the amount bound by platelets treated with eptifibatide” value is given as 73±9%. Also, the inhibition (as a rule, the change of the read-out against control, counted positive when it falls) at 100 µM in assay [2] (100 μM) is 5 ± 7%; in assay [3] it was 55 ± 5%; in the assay on platelets [5] (100 μM, 5 separate experiments) it was 70 ± 15%. The IC50 (commonly the midpoint of a concentration-inhibition curve) is 12 µM with platelets [4] (Homo sapiens, Platelet) and 18 µM in the assay on platelets [4]. For the same compound, the inhibition at 10 µM with platelets [5] was 22 ± 8%. Besides, the inhibition at 30 µM with platelets [5] (30 μM, 5 separate experiments) is 38 ± 10%. In addition, the “shift of nanodisc-integrin length (NIL) values / receptor extension” value at purified αIIbβ3 (concentrations up to 100 μM) is given as “do not induce receptor extension”.
The compound `NCC(=O)Nc1cccc(-c2nn3c(=O)cc(N4CCNCC4)nc3s2)c1` [2-amino-N-(3-(5-oxo-7-(piperazin-1-yl)-5H-[1,3,4]thiadiazolo[3,2-a]pyrimidin-2-yl)phenyl)acetamide] gave an inhibition at 10 µM in assay [2] (10 μM) of 6 ± 15%.
As for `N=C(N)NCCCC[C@@H]1NC(=O)CCSSC[C@@H](C(N)=O)NC(=O)[C@@H]2CCCN2C(=O)[C@H](Cc2c[nH]c3ccccc23)NC(=O)[C@H](CC(=O)O)NC(=O)CNC1=O` [eptifibatide, reference compound] ([Mpa][hArg]GDWPC-NH2; disulfide 1-7), the “shift of nanodisc-integrin length (NIL) frequency distribution” value on purified αIIbβ3 is recorded as “shift the distribution in a dose-dependent manner”.
On to `CCCCS(=O)(=O)N[C@@H](Cc1ccc(OCCCCC2CCNCC2)cc1)C(=O)O` [tirofiban, reference compound], for which, in the assay with washed platelets [6], the “increase in IC50 at higher Mg2+ concentrations comparable to that of Example 27” value is “nor tirofiban shows a comparable increase in IC50”. Also, in the assay with platelets [5], the inhibition at 10 µM was 87 ± 9%. Moreover, the “shift of nanodisc-integrin length (NIL) frequency distribution” value at purified αIIbβ3 is listed as “shift the distribution in a dose-dependent manner”.

(Values after patent US9066948B2, “Oxadiazolo[3,2-a]pyrimidines and thiadiazolo[3,2-a]pyrimidines” (THE UNITED STATES OF AMERICA AS REPRESENTED BY THE …, priority 2010, dated 2015).)
